# Results reported in ChEMBL document CHEMBL1201862, “PubChem BioAssay data set” (2004).
# Counter-ions that a name gives are not always drawn. The source made the active and inactive calls.
# Legend:
# Cytochrome P450 1A2 = target: T1, Cytochrome P450 1A2 (Homo sapiens, UniProt P05177);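 also: PubChem cytochrome P450 panel assay, CYP1A2 panel member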
# T1 sequence (P05177 whole entry): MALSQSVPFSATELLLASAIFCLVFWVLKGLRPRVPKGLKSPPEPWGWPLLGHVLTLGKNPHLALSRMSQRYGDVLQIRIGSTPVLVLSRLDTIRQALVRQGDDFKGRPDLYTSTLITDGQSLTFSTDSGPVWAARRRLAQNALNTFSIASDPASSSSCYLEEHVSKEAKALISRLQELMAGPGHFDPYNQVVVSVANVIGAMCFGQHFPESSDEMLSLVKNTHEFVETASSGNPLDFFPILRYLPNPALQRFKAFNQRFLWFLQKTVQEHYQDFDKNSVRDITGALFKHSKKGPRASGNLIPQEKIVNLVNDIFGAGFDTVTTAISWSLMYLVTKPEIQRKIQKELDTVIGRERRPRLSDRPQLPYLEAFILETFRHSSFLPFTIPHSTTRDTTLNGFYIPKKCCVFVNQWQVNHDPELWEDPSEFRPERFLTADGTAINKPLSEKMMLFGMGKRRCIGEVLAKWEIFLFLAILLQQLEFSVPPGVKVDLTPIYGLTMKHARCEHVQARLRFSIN
# [1] = Luminescence Cell-Based Dose Retest to Confirm Inhibitors of Cancer Stem Cells. [Related pubchem assays (depositor defined):AID2717, AID2721]; format: functional; conditions: Homo sapiens
# [2] = target: T2, RNA-binding protein pos-1 (Caenorhabditis elegans, UniProt G5EF15); experiment: disruptors of C. elegans POS-1 RNA interaction – biochemical, fluorescence polarization, dose response (AID 1964);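 also: purified POS-1 fused to maltose binding protein made in E. coli; potency of compounds blocking POS-1 binding to fluorescent RNA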
# T2 sequence (G5EF15 whole entry): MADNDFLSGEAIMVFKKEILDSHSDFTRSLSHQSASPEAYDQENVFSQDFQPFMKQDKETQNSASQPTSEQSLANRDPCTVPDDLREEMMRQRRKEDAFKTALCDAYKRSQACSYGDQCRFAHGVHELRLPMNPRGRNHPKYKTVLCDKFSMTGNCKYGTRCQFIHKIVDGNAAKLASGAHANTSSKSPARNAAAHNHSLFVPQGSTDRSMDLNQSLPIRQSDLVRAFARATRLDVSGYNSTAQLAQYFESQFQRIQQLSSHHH
# [3] = target: T3, Zinc finger protein mex-5 (Caenorhabditis elegans, UniProt Q9XUB2); experiment: potency of MEX-5 RNA-binding blockers – biochemical, C. elegans, fluorescence polarization, dose response (AID 1960)
# T3 sequence (Q9XUB2 whole entry): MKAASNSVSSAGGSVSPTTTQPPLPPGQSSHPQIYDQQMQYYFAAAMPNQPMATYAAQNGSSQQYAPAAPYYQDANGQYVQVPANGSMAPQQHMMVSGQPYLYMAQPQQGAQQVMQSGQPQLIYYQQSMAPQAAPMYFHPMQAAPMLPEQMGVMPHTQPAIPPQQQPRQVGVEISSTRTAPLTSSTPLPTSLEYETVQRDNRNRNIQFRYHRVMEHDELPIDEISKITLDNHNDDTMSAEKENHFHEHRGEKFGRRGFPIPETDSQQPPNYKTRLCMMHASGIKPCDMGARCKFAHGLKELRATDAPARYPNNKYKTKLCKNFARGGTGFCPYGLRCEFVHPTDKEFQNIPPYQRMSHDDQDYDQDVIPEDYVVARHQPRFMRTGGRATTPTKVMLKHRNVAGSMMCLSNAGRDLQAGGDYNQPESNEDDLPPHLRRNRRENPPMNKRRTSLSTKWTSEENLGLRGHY
# [4] = target: T4, Rac GTPase-activating protein 1 (Homo sapiens, UniProt Q9H0H5); experiment: blockers of MgcRacGAP-driven Rac1 GTP hydrolysis – biochemical, ADP Hunter fluorescence, primary and confirmatory, confirmation (AID 624330); format: functional
# T4 sequence (Q9H0H5 whole entry): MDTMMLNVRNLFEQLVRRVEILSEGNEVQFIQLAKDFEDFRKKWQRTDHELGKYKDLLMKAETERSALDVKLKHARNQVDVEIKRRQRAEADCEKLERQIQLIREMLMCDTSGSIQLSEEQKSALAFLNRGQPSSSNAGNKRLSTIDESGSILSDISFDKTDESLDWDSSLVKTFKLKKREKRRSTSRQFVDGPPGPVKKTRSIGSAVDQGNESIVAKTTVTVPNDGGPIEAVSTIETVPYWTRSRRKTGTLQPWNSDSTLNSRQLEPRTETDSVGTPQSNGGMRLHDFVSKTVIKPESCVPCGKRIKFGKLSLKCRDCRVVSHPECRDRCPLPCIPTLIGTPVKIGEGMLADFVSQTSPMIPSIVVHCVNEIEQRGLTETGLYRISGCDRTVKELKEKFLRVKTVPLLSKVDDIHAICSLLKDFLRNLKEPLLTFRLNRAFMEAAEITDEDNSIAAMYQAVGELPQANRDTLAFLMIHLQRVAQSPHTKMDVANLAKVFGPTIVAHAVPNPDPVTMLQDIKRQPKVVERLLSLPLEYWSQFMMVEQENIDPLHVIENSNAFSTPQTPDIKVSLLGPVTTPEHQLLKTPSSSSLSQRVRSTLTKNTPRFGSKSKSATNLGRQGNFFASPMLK
# Cytochrome P450 2C9 = Cytochrome P450 2C9 (Homo sapiens, UniProt P11712)
# Chain of Cytochrome P450 2C9 (P11712 whole entry): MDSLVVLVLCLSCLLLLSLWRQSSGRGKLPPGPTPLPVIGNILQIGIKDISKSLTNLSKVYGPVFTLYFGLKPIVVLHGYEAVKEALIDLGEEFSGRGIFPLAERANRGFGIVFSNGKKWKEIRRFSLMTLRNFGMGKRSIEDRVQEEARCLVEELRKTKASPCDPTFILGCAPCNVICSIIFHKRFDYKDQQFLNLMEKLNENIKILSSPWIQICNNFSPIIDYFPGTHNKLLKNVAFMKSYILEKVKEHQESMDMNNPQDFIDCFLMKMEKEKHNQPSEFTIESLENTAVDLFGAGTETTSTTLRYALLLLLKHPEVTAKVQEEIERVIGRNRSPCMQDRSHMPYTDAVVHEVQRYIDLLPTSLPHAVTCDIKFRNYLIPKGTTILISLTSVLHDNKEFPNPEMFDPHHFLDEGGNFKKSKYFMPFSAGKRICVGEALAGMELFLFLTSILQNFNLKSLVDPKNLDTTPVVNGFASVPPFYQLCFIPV
# [5] = target: T5, Heat shock factor protein 1 (Mus musculus, UniProt P38532); experiment: decrease of HSF1-responsive luciferase luminescence – cell-based, NIH3T3, dose retest, confirmation (AID 2382); format: functional;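 also: NIH3T3 fibroblasts with HSF1-driven luciferase reporter stressed by proteasome inhibitor MG132; luminescence from HSF1-driven luciferase expression after 8 hours of MG132 stress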
# T5 sequence (P38532 whole entry): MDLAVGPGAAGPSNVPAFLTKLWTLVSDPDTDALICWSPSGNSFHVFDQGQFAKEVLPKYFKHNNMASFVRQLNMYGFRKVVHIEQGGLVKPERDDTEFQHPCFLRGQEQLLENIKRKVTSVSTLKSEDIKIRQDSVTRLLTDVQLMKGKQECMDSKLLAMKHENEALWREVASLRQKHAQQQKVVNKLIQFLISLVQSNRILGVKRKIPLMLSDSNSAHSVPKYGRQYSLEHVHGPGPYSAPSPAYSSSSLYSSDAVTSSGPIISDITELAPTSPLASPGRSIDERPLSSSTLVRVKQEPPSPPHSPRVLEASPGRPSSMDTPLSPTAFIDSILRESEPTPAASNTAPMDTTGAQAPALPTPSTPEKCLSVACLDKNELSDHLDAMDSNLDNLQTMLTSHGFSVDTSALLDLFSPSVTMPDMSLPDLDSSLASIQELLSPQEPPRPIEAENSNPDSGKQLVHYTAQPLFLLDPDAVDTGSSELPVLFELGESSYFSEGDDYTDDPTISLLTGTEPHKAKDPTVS
smiles,measurement,setting,value
N#Cc1cccc(NC(=O)N2CCCC3(CCN(C(=O)c4cc(C(F)(F)F)cc(C(F)(F)F)c4)CC3)C2)c1,AC50,Cytochrome P450 1A2,6.31 µM (inconclusive)
CSc1ccc2c(c1)C(N1CCN(C)CC1)Cc1ccccc1S2 (stereo not given),AC50,[1],11.1 µM (active)
Cn1cccc1-c1nc2ccccc2n1Cc1ccccc1,AC50,[1],10.4 µM (active)
CCOC(=O)c1cc(=O)n2nc(-c3ccc(C)cc3)nc2s1,EC50,[2],> 300 µM (not active)
same,EC50,[3],> 300 µM (not active)
S=C(NCc1ccncc1)Nc1ccc(Cl)cc1Cl,EC50,[2],> 300 µM (not active)
same,EC50,[3],> 300 µM (not active)
O=C(c1cccnc1)N1CCN(Cc2cccc(Br)c2)CC1,IC50,[4],117 µM (active)
O=C(NCCOc1ccccc1)C1Nc2ccc(OC(F)(F)F)cc2C2C=CCC12 (stereo not given),EC50,[2],> 300 µM (not active)
same,EC50,[3],> 300 µM (not active)
CCOC(=O)C1=C(CN2c3ccccc3CC2C)NC(=O)NC1c1ccccc1 (stereo not given),AC50,Cytochrome P450 1A2,22.4 µM (inconclusive)
same,AC50,Cytochrome P450 2C9,25.1 µM (inconclusive)
CCN1CCc2c(OCc3ccccc3)cccc2C1=O,EC50,[5],37.3 µM (active)
NC[C@H](CP(=O)(O)O)c1ccc(Cl)cc1,AC50,Cytochrome P450 1A2,39.8 µM (inconclusive)
Cc1ccccc1OCC(O)Cn1c2ccccc2c2ccccc21 (stereo not given),AC50,[1],5.66 µM (active)
N#C/C(=C\N1CCNC1=S)C(=O)c1ccc2ccccc2c1,AC50,Cytochrome P450 1A2,1.58 µM (inconclusive)
same,AC50,Cytochrome P450 2C9,3.16 µM (inconclusive)
CC(C)(C)[C@H]1C=C(C(=O)Nc2ccccc2)O[C@@H](OCCCCO)C1,EC50,[5],5.49 µM (active)
COc1cccc(O)c1CN1CCC(C(=O)Nc2ccc(-c3cccc(C)c3)cc2)CC1,AC50,[1],6.71 µM (active)
CC(C)(C)NC(=O)c1c(F)c(F)c(F)c(F)c1F,EC50,[5],> 195 µM (not active)
Oc1cc(Br)ccc1/C=N/c1ccc(N2CCCCC2)cc1,IC50,[4],5.88 µM (active)
CN(CCC(=O)O)C1=Nc2ccc(Cl)cc2C(c2ccccc2)=[N+]([O-])C1,AC50,Cytochrome P450 1A2,0.0631 µM (inconclusive)
COc1cc(N2N=C(c3ccccc3)CC2c2ccccc2)c(C=O)cc1C=O (stereo not given),EC50,[5],> 195 µM (not active)
Cc1cnc(CNc2ncncc2-c2ccc(C(=O)N(C)C)cc2)cn1,AC50,Cytochrome P450 1A2,20 µM (inconclusive)
CC/C(=C(\c1ccccc1)c1ccc(OCCN(C)C)cc1)c1ccccc1 [TAMOXIFEN CITRATE],AC50,[1],4.53 µM (active)
COc1nc(-c2ccccc2)ccc1-c1noc(COc2ccccc2)n1,EC50,[5],> 195 µM (not active)
COc1ccc(OC(=O)C2CC(=O)N(c3ccc(C)cc3)C2)cc1 (stereo not given),IC50,[4],48.3 µM (active)
Cc1[nH]c2ccccc2c1-c1csc(NC(=O)CSCCO)n1,IC50,[4],122 µM (active)
Oc1ccc(/C=N/N=C/c2ccc(O)cc2)cc1,IC50,[4],77.6 µM (active)
COc1ccc(C(=O)CSc2nnc(CN3CCCCC3)n2-c2ccc(Cl)cc2)cc1OC,AC50,[1],2.91 µM (active)
